According to article PMC9604325 (International Journal of Molecular Sciences, 2022):

How the values were obtained:
[1] = tested on: store-operated calcium entry (SOCE) in HT-22 cells; test: SOCE Ca2+ imaging in Fluo3-loaded HT-22 cells (Tg-induced store release, then Ca2+ entry); format: cell-based, mouse; settings: control HT-22 cells
Procedure: (§1) Cytosolic Ca^2+ imaging was assessed in the HT-22 cell culture with the fluorescent probe Fluo3-AM. […] The untread cells were regarded as the controls. […] Then, the cells were washed once with 1 mL of MLocke’s K5 buffer, and the 35 mm culture dishes were placed in the thermostatic plate at 37 °C (Warner Instrument Co., Hamden, CT, USA) of the Nikon Diaphot 300 inverted epifluorescence microscope (Tokyo, Japan) with an NCF Plan ELWD 40× objective (the pixel size of the images shown in this work was 0.2 μm). The images of the Fluo3-loaded cells were acquired with the Hamamatsu Orca-R^2 CCD camera (binning mode 2 × 2) with an excitation filter of 470 nm, a dichroic mirror of 510 nm with an emission filter of 520 nm, and a 0.3 s exposure time. […] The depletion of the Ca^2+ stores was triggered by adding 2 μM of the SERCA pump blocker Tg plus ethylene glycol tetraacetic acid (1 mM), in a Ca^2+-free Mlocke’s K5 buffer. Then, the SOCE was measured after the addition of 3 mM of CaCl2 to the Tg-containing medium. […] The activity of the RyR Ca^2+-leak channels was evaluated by incubation with 100 μM of the RyR antagonist ryanodine for 1 h in the HT-22 culture media. In all experiments with antagonists, we performed the respective dimethylsulfoxide vehicle controls.

[2] = tested on: HT-22 cells; test: Mitochondrial membrane potential, TMRE assay; format: cell-based, mouse; settings: 5 μM FCCP, TMRE-loaded HT-22 cells
Procedure: Mitochondrial depolarization was monitored with the fluorescent dye TMRE, as previously described, with small changes. […] Then, the HT-22 culture dishes were placed in the thermostatic plate at 37 °C of the inverted epifluorescence microscope and the fluorescence kinetic was recorded at 556 nm excitation filter and a dichroic mirror of 580 nm with an emission filter of 590 nm and a time of exposure 0.01 s. To assess the level of the mitochondrial membrane depolarization, 5 μM of a potent mitochondrial oxidative phosphorylation uncoupler FCCP was added to the medium. The region of interest (ROI) tool of the HCImage software was used for the quantitative analysis. The average fluorescence intensity readings per pixel in the HT-22 cells were taken from several fields for a total number of 80 cells.

[3] = tested on: HT22 cells; test: Intracellular calcium response of Fluo3-loaded HT22 cells to cholinergic agonists; format: cell-based, mouse; settings: for intracellular calcium response in the majority of the cells: Fluo3-loaded HT22 cells
Procedure: as §1
Supplementary Figure S8. Representative kinetic traces of the average fluorescence intensity of Fluo3-loaded
HT22 cells (Ft/F0) recorded over time every 15 s intervals
Ca2+ entry mediated by cholinergic receptors. The data shown are the means ±SEM of n =16 cells.
(1 picture or pasted object on this page, not shown here)

[4] = molecular target: T1, RyR (Mus musculus, UniProt E9Q401); test: Tg-induced Ca2+ release from stores in Fluo3-loaded HT-22 cells with the RyR antagonist ryanodine; format: cell-based; settings: 100 μM ryanodine, 1 h, 37 °C, control HT-22 cells; 2 μM Tg
T1 construct: incubation with 100 μM of the RyR antagonist ryanodine for 1 h in the HT-22 culture media; endogenous in cells; host or cells: HT-22 (mouse hippocampal cell line)
T1 sequence (E9Q401 whole entry): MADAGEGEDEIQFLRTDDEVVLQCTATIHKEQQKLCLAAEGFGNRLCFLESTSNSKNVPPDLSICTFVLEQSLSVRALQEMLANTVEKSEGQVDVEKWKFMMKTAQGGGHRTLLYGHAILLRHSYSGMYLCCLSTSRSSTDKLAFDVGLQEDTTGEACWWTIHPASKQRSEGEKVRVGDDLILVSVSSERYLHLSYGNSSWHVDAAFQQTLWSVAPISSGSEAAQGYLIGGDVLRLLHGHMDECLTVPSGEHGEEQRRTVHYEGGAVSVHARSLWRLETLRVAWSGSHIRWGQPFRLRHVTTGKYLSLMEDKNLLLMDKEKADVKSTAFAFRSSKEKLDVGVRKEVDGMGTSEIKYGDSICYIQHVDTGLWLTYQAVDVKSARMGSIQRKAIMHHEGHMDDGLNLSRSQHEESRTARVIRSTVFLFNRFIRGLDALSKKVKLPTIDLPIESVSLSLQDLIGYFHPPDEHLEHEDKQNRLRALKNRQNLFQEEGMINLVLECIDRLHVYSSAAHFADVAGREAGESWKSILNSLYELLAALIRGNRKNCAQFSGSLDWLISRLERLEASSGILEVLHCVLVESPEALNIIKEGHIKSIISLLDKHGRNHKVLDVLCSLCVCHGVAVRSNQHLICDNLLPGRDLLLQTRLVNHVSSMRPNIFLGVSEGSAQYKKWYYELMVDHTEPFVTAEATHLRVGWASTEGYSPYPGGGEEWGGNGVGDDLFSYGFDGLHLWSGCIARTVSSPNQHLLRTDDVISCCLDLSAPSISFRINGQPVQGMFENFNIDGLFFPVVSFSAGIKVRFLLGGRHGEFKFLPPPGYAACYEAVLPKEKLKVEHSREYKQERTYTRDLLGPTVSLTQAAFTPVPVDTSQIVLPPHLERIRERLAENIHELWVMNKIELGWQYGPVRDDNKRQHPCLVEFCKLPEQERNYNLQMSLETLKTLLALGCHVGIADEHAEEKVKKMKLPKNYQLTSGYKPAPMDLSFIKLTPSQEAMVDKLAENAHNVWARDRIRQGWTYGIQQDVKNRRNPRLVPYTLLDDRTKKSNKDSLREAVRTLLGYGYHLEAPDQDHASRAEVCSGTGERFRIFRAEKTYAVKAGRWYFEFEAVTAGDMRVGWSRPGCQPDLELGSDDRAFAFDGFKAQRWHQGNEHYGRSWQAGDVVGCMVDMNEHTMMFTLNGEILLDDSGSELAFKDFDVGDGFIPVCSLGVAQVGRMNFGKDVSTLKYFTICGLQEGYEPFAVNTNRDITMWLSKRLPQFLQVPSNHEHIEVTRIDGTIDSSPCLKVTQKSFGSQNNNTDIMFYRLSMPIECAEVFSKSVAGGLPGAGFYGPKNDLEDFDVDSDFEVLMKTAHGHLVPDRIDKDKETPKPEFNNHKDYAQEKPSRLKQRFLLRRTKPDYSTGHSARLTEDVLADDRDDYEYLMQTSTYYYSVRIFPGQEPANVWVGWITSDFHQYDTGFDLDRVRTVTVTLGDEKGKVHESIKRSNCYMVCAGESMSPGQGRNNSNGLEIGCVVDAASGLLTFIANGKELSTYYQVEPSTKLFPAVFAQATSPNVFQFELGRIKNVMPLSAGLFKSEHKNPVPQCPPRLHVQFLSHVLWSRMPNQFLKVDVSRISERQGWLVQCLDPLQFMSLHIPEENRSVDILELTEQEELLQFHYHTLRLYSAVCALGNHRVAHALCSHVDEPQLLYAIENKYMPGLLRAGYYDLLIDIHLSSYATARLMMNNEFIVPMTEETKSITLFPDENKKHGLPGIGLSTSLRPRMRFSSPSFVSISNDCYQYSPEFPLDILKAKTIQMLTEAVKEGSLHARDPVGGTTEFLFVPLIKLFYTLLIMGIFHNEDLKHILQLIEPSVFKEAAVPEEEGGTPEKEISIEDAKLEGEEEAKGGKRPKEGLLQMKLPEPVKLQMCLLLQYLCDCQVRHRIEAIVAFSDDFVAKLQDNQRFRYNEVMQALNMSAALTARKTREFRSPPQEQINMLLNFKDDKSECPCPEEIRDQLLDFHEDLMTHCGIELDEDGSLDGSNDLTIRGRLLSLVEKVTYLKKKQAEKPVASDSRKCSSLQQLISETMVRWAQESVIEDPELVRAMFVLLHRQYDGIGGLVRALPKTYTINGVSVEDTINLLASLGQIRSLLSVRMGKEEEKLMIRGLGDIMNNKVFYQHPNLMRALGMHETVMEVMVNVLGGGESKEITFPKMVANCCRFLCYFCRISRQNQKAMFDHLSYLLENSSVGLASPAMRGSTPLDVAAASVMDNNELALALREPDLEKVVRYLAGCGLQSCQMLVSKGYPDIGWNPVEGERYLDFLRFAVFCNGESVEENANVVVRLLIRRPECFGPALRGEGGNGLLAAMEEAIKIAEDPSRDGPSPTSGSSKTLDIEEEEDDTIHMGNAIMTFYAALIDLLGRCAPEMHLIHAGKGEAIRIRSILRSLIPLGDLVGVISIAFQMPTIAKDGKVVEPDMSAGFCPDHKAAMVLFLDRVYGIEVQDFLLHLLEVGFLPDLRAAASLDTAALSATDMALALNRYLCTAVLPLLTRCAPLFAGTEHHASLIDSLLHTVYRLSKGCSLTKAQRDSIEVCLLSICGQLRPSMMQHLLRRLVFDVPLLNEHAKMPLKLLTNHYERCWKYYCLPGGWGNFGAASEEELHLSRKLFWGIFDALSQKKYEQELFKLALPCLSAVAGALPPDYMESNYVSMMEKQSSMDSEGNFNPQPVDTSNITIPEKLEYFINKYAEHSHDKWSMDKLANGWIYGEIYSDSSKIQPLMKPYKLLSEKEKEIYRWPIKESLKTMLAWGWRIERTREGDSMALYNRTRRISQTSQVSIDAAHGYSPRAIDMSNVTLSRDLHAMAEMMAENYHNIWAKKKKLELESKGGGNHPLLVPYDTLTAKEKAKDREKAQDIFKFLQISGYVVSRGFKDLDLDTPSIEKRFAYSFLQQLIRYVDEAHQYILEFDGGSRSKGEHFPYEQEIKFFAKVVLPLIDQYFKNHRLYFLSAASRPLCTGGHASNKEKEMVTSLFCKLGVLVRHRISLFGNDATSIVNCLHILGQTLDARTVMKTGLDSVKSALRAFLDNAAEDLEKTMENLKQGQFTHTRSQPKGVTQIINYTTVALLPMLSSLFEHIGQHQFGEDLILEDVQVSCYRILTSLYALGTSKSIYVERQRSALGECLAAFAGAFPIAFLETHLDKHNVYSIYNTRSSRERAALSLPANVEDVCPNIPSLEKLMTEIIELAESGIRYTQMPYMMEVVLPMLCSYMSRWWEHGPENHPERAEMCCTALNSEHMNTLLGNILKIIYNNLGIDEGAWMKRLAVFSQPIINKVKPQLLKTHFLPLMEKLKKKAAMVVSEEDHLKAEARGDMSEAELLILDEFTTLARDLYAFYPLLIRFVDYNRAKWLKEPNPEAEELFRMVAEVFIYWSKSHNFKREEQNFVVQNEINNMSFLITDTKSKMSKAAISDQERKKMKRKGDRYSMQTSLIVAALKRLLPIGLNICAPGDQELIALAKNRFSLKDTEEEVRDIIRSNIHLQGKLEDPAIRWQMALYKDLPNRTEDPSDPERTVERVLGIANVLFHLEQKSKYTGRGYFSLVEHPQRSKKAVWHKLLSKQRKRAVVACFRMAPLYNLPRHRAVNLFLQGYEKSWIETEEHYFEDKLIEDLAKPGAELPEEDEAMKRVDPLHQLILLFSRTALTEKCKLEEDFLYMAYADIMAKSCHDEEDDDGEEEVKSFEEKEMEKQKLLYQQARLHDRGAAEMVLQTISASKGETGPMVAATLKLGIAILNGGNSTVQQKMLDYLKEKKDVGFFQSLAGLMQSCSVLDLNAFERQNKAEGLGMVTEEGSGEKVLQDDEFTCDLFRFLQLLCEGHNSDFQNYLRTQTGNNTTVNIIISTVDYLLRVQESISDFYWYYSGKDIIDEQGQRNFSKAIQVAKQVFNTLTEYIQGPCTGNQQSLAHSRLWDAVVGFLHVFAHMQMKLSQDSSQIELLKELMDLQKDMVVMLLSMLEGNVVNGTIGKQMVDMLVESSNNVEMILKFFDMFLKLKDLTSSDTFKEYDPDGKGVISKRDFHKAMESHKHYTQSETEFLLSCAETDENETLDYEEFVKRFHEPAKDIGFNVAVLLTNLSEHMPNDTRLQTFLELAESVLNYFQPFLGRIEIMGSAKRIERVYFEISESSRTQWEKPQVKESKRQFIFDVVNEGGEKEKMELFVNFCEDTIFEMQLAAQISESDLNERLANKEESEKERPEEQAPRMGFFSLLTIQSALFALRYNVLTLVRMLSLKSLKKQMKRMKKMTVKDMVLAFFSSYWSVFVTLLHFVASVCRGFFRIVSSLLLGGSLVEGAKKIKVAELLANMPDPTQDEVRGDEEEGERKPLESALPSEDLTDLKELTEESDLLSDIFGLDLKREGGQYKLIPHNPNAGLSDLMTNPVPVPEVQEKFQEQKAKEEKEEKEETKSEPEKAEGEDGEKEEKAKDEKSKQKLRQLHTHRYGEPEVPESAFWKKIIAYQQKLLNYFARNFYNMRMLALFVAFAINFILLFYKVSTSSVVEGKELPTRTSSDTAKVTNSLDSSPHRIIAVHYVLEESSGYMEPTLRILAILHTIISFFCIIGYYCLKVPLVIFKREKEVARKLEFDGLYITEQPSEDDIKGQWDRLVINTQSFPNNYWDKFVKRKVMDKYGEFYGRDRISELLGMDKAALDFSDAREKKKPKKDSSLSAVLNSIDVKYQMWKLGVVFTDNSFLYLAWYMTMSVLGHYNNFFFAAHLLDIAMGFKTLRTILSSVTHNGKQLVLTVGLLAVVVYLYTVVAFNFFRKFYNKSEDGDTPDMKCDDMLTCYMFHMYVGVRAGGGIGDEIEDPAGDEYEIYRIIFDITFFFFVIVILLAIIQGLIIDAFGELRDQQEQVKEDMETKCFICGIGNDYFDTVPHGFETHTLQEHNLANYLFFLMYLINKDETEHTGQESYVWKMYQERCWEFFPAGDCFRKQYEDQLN
Procedure: as §1

Cc1nnsc1C(=O)Nc1ccc(-n2nc(C(F)(F)F)cc2C(F)(F)F)cc1 [BTP2, N-[4-[3,5-bis(trifluoromethyl)pyrazol-1-yl]phenyl]-4-methylthiadiazole-5-carboxamide]
Ca2+ released from the stores after addition of Tg versus control ([1]; 3 μM BTP2, 15 min): no significative difference | decrease of Ca2+ entry through the plasma membrane relative to control without BTP2 ([1]; 3 μM BTP2, 15 min preincubation, 37 °C, mean ± SEM, n > 80 cells): 71 ± 8%

N#CC(C#N)=NNc1ccc(OC(F)(F)F)cc1 [FCCP, trifluoromethoxy carbonylcyanide phenylhydrazone]
mitochondria membrane potential after addition (positive control of depolarization) [2]: large decrease

CC(=O)OCC[N+](C)(C)C [acetylcholine]
fraction of HT22 cells showing intracellular calcium concentration peaks ([3]; 100 μM acetylcholine, Fluo3-loaded cells): less than 25% | intracellular calcium response in the majority of the cells [3]: almost negligible

C[N+](C)(C)CCOC(N)=O [carbachol]
intracellular calcium response in the majority of the cells [3]: almost negligible

ryanodine
increase of ER Ca2+ content (Tg-induced Ca2+ release from stores) versus control without ryanodine [4]: about 2.2 fold
